Columns and labels:
Test in all cases: relative viability (nuclei count vs DMSO), 5 days (fraction); higher = more cells survive
[1] = tested on: HARA
Method in brief: (§1)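 After 5 days of treatment, lung cancer cells in 1536-well plates were fixed and stained in a single step (final 0.05% Triton X-100, 1% formaldehyde, 1 ug/ml Hoechst) and their nuclei counted on 4× images. Treatment had been applied by pin tool the day after seeding as one drug alone or as a fixed anchor-drug dose with five library-drug doses (not always all listed) in √10 steps. Relative viability is the nuclei count of treated wells divided by that of vehicle wells, and values are medians of duplicate plates.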

[2] = tested on: NCI-H596
Method in brief: as §1

[3] = tested on: COR-L 105
Method in brief: as §1

[4] = tested on: HCC-366
Method in brief: as §1

[5] = tested on: HOP-62
Method in brief: as §1

[6] = tested on: NCI-H1915
Method in brief: as §1

[7] = tested on: NCI-H1650
Method in brief: as §1

[8] = tested on: LU99A
Method in brief: as §1

[9] = tested on: LOU-NH91
Method in brief: as §1

[10] = tested on: LC-2-ad
Method in brief: as §1

[11] = tested on: HCC-827
Method in brief: as §1

[12] = tested on: HCC-15
Method in brief: as §1

[13] = tested on: NCI-H1395
Method in brief: as §1

[14] = tested on: CAL-12T
Method in brief: as §1

[15] = tested on: NCI-H650
Method in brief: as §1

[16] = tested on: ABC-1
Method in brief: as §1

[17] = tested on: NCI-H1944
Method in brief: as §1

[18] = tested on: LCLC-97TM1
Method in brief: as §1

[19] = tested on: NCI-H2023
Method in brief: as §1

[20] = tested on: ChaGo-K-1
Method in brief: as §1

[21] = tested on: NCI-H2009
Method in brief: as §1

[22] = tested on: HCC-44
Method in brief: as §1

[23] = tested on: BEN
Method in brief: as §1

[24] = tested on: NCI-H522
Method in brief: as §1

[25] = tested on: NCI-H661
Method in brief: as §1

Nc1cccc2c1CN(C1CCC(=O)NC1=O)C2=O (stereo not drawn) [Lenalidomide] + Cc1cc(Nc2cc(N3CCN(C)CC3)nc(Sc3ccc(NC(=O)C4CC4)cc3)n2)n[nH]1 [Tozasertib] (partner 0.1 µM)
relative viability ([1]; first compound 0.253 µM): 0.0944 | relative viability ([1]; first compound 2.53 µM): 0.133 | relative viability ([1]; first compound 8 µM): 0.103 | relative viability ([2]; first compound 0.253 µM): 0.755 | relative viability ([2]; first compound 2.53 µM): 0.904 | relative viability ([2]; first compound 8 µM): 0.774 | relative viability ([3]; first compound 0.253 µM): 0.351 | relative viability ([3]; first compound 0.8 µM): 0.31 | relative viability ([3]; first compound 2.53 µM): 0.402 | relative viability ([3]; first compound 8 µM): 0.373 | relative viability ([4]; first compound 0.253 µM): 0.14 | relative viability ([4]; first compound 0.8 µM): 0.128 | relative viability ([4]; first compound 2.53 µM): 0.154 | relative viability ([4]; first compound 8 µM): 0.131 | relative viability ([5]; first compound 0.253 µM): 0.359 | relative viability ([5]; first compound 0.8 µM): 0.41 | relative viability ([5]; first compound 2.53 µM): 0.352 | relative viability ([5]; first compound 8 µM): 0.405 | relative viability ([6]; first compound 0.253 µM): 0.45 | relative viability ([6]; first compound 0.8 µM): 0.471 | relative viability ([6]; first compound 2.53 µM): 0.437 | relative viability ([6]; first compound 8 µM): 0.527 | relative viability ([7]; first compound 0.8 µM): 0.58 | relative viability ([7]; first compound 2.53 µM): 0.563 | relative viability ([7]; first compound 8 µM): 0.592 | relative viability ([8]; first compound 0.253 µM): 0.32 | relative viability ([8]; first compound 0.8 µM): 0.284 | relative viability ([8]; first compound 2.53 µM): 0.29 | relative viability ([8]; first compound 8 µM): 0.276 | relative viability ([9]; first compound 0.253 µM): 0.715 | relative viability ([9]; first compound 0.8 µM): 0.737 | relative viability ([9]; first compound 2.53 µM): 0.715 | relative viability ([9]; first compound 8 µM): 0.73 | relative viability ([10]; first compound 0.253 µM): 0.538 | relative viability ([10]; first compound 2.53 µM): 0.469 | relative viability ([10]; first compound 8 µM): 0.469 | relative viability ([11]; first compound 0.253 µM): 0.47 | relative viability ([11]; first compound 0.8 µM): 0.41 | relative viability ([11]; first compound 2.53 µM): 0.455 | relative viability ([11]; first compound 8 µM): 0.462 | relative viability ([12]; first compound 0.253 µM): 0.352 | relative viability ([12]; first compound 0.8 µM): 0.431 | relative viability ([12]; first compound 2.53 µM): 0.446 | relative viability ([12]; first compound 8 µM): 0.496 | relative viability ([13]; first compound 0.253 µM): 0.692 | relative viability ([13]; first compound 0.8 µM): 0.753 | relative viability ([13]; first compound 2.53 µM): 0.818 | relative viability ([13]; first compound 8 µM): 0.678 | relative viability ([14]; first compound 0.253 µM): 0.3 | relative viability ([14]; first compound 0.8 µM): 0.302 | relative viability ([14]; first compound 2.53 µM): 0.463 | relative viability ([14]; first compound 8 µM): 0.352 | relative viability ([15]; first compound 0.253 µM): 0.795 | relative viability ([15]; first compound 2.53 µM): 0.869 | relative viability ([15]; first compound 8 µM): 0.714 | relative viability ([16]; first compound 0.253 µM): 0.199 | relative viability ([16]; first compound 0.8 µM): 0.17 | relative viability ([16]; first compound 2.53 µM): 0.184 | relative viability ([16]; first compound 8 µM): 0.175 | relative viability ([17]; first compound 0.253 µM): 0.234 | relative viability ([17]; first compound 0.8 µM): 0.278 | relative viability ([17]; first compound 2.53 µM): 0.285 | relative viability ([17]; first compound 8 µM): 0.232 | relative viability ([18]; first compound 0.253 µM): 0.227 | relative viability ([18]; first compound 0.8 µM): 0.277 | relative viability ([18]; first compound 2.53 µM): 0.256 | relative viability ([18]; first compound 8 µM): 0.232 | relative viability ([19]; first compound 0.253 µM): 0.445 | relative viability ([19]; first compound 0.8 µM): 0.403 | relative viability ([19]; first compound 2.53 µM): 0.386 | relative viability ([19]; first compound 8 µM): 0.519 | relative viability ([20]; first compound 0.253 µM): 0.242 | relative viability ([20]; first compound 0.8 µM): 0.228 | relative viability ([20]; first compound 2.53 µM): 0.249 | relative viability ([20]; first compound 8 µM): 0.231 | relative viability ([21]; first compound 0.253 µM): 0.776 | relative viability ([21]; first compound 0.8 µM): 0.761 | relative viability ([21]; first compound 2.53 µM): 0.836 | relative viability ([21]; first compound 8 µM): 0.847 | relative viability ([22]; first compound 0.253 µM): 0.886 | relative viability ([22]; first compound 2.53 µM): 1.22 | relative viability ([22]; first compound 8 µM): 1.12 | relative viability ([23]; first compound 0.253 µM): 0.594 | relative viability ([23]; first compound 0.8 µM): 0.462 | relative viability ([23]; first compound 2.53 µM): 0.441 | relative viability ([23]; first compound 8 µM): 0.57 | relative viability ([24]; first compound 0.253 µM): 0.574 | relative viability ([24]; first compound 2.53 µM): 0.52 | relative viability ([24]; first compound 8 µM): 0.511 | relative viability ([25]; first compound 0.253 µM): 0.379 | relative viability ([25]; first compound 0.8 µM): 0.368 | relative viability ([25]; first compound 2.53 µM): 0.335 | relative viability ([25]; first compound 8 µM): 0.374

Reference: the supplement of paper PMC10307832
